Data taken from ChEMBL document CHEMBL4725367, “Novel anticancer Hsp90 inhibitor disubstituted pyrazolyl 2-aminopyrimidine compound 7t induces cell cycle arrest and apoptosis via mitochondrial pathway in MCF-7 cells” (Bioorg Med Chem Lett, 2020).

Tests used:
[1] = target: T1, Heat shock protein HSP90 (Homo sapiens) (UniProt P07900+P08238); assay: Inhibition of HSP90 in human MCF7 cells assessed as induction of apoptosis by measuring total apoptotic and dead cell population at 0.5 uM measured after 24 hrs by annexinV-FITC/propidium iodide staining based flow cytometry (reference value: 9.23 %); design: scale not given: the % may be the effect or the level left
[2] = target: T1, Heat shock protein HSP90 (Homo sapiens); assay: Inhibition of HSP90 in human MCF7 cells assessed as cell cycle arrest by measuring accumulation at G2/M phase at 5 uM measured after 24 hrs by RNaseA/propidium iodide staining based flow cytometric analysis (reference value: 25.08 %); design: scale not given: the % may be the effect or the level left
[3] = target: T1, Heat shock protein HSP90 (Homo sapiens); assay: Inhibition of HSP90 in human MCF7 cells assessed as cell cycle arrest by measuring accumulation at G0/G1 phase at 5 uM measured after 24 hrs by RNaseA/propidium iodide staining based flow cytometric analysis (reference value: 39.10 %); design: scale not given: the % may be the effect or the level left
[4] = target: T1, Heat shock protein HSP90 (Homo sapiens); assay: Inhibition of HSP90 in human MCF7 cells assessed as induction of apoptosis by measuring total apoptotic and dead cell population at 4 uM measured after 24 hrs by annexinV-FITC/propidium iodide staining based flow cytometry (reference value: 9.23 %); design: scale not given: the % may be the effect or the level left
[5] = target: T1, Heat shock protein HSP90 (Homo sapiens); assay: Inhibition of HSP90 in human MCF7 cells assessed as induction of apoptosis by measuring late apototic cells at 10 uM measured after 24 hrs by annexinV-FITC/propidium iodide staining based flow cytometry (reference value: 7.91 %); assay type: cell-based; design: scale not given: the % may be the effect or the level left
[6] = target: T1, Heat shock protein HSP90 (Homo sapiens); assay: Inhibition of HSP90 in human MCF7 cells assessed as induction of mitochondrial membrane potential loss by measuring cell population with mitochondrial membrane potential collapse at 10 uM after 24 hrs by JC1 staining-based flow cytometry analysis (reference value: 6.53 %); design: scale not given: the % may be the effect or the level left
[7] = target: T1, Heat shock protein HSP90 (Homo sapiens); assay: Inhibition of HSP90 in human MCF7 cells assessed as induction of apoptosis by measuring early apototic cells at 10 uM measured after 24 hrs by annexinV-FITC/propidium iodide staining based flow cytometry (reference value: 1.31 %); assay type: cell-based; design: scale not given: the % may be the effect or the level left
[8] = target: T1, Heat shock protein HSP90 (Homo sapiens); assay: Inhibition of HSP90 in human MCF7 cells assessed as induction of mitochondrial membrane potential loss by measuring cell population with mitochondrial membrane potential collapse at 2.5 uM after 24 hrs by JC1 staining-based flow cytometry analysis (reference value: 6.53 %); design: scale not given: the % may be the effect or the level left
[9] = target: T1, Heat shock protein HSP90 (Homo sapiens); assay: Inhibition of HSP90 in human MCF7 cells assessed as induction of mitochondrial membrane potential loss by measuring cell population with intact mitochondrial membrane potential at 10 uM after 24 hrs by JC1 staining-based flow cytometry analysis (reference value: 92.39 %); design: scale not given: the % may be the effect or the level left
[10] = target: T1, Heat shock protein HSP90 (Homo sapiens); assay: Inhibition of HSP90 in human MCF7 cells assessed as cell cycle arrest by measuring accumulation at Sub-G1 phase at 5 uM measured after 24 hrs by RNaseA/propidium iodide staining based flow cytometric analysis (reference value: 3.75 %); design: scale not given: the % may be the effect or the level left
[11] = target: T1, Heat shock protein HSP90 (Homo sapiens); assay: Inhibition of HSP90 in human MCF7 cells assessed as cell cycle arrest by measuring accumulation at G0/G1 phase at 10 uM measured after 24 hrs by RNaseA/propidium iodide staining based flow cytometric analysis (reference value: 39.10 %); design: scale not given: the % may be the effect or the level left
[12] = target: T1, Heat shock protein HSP90 (Homo sapiens); assay: Inhibition of HSP90 in human MCF7 cells assessed as induction of apoptosis by measuring early apototic cells at 5 uM measured after 24 hrs by annexinV-FITC/propidium iodide staining based flow cytometry (reference value: 1.31 %); assay type: cell-based; design: scale not given: the % may be the effect or the level left
[13] = target: T1, Heat shock protein HSP90 (Homo sapiens); assay: Inhibition of HSP90 in human MCF7 cells assessed as induction of apoptosis by measuring necrotic cells at 5 uM measured after 24 hrs by annexinV-FITC/propidium iodide staining based flow cytometry (reference value: 0.01 %); assay type: cell-based; design: scale not given: the % may be the effect or the level left
[14] = target: T1, Heat shock protein HSP90 (Homo sapiens); assay: Inhibition of HSP90 in human MCF7 cells assessed as induction of morphological changes by measuring apoptotic body formation at 2.5 to 10 uM by acridine orange/ethidium bromide staining based fluorescence microscopy analysis; assay type: cell-based; settings: dose microM 2.5-10
[15] = target: T1, Heat shock protein HSP90 (Homo sapiens); assay: Inhibition of HSP90 in human MCF7 cells assessed as induction of morphological changes by measuring chromatin condensation and fragmentation in nucleus at 2.5 to 10 uM by acridine orange/ethidium bromide staining based fluorescence microscopy analysis; assay type: cell-based; settings: dose microM 2.5-10
[16] = target: T1, Heat shock protein HSP90 (Homo sapiens); assay: Inhibition of HSP90 in human MCF7 cells assessed as induction of apoptosis by measuring total apoptotic and dead cell population at 0.5 to 4 uM measured after 24 hrs by annexinV-FITC/propidium iodide staining based flow cytometry; settings: dose microM 0.5-4, time 24.0 hrs
[17] = target: T1, Heat shock protein HSP90 (Homo sapiens); assay: Inhibition of HSP90 in human MCF7 cells assessed as induction of mitochondrial membrane potential loss by measuring cell population with mitochondrial membrane potential collapse at 2.5 to 10 microM after 24 hrs by JC1 staining-based flow cytometry analysis; settings: dose microM 2.5-10, time 24.0 hrs
[18] = target: T1, Heat shock protein HSP90 (Homo sapiens); assay: Inhibition of HSP90 in human MCF7 cells assessed as induction of apoptosis by measuring late apototic cells at 2.5 uM measured after 24 hrs by annexinV-FITC/propidium iodide staining based flow cytometry (reference value: 7.91 %); assay type: cell-based; design: scale not given: the % may be the effect or the level left
[19] = target: T1, Heat shock protein HSP90 (Homo sapiens); assay: Inhibition of HSP90 in human MCF7 cells assessed as induction of apoptosis by measuring live cells at 10 uM measured after 24 hrs by annexinV-FITC/propidium iodide staining based flow cytometry (reference value: 90.77 %); assay type: cell-based; design: scale not given: the % may be the effect or the level left
[20] = target: T1, Heat shock protein HSP90 (Homo sapiens); assay: Inhibition of HSP90 in human MCF7 cells assessed as cell cycle arrest by measuring accumulation at Sub-G1 phase at 2.5 uM measured after 24 hrs by RNaseA/propidium iodide staining based flow cytometric analysis (reference value: 3.75 %); design: scale not given: the % may be the effect or the level left

**Q.** How did the Activity [1] turn out when Nc1nc(-c2ccc(Br)cc2)cc(-c2cn(-c3ccc(Cl)cc3)nc2-c2ccc([N+](=O)[O-])cc2)n1 was run?
**A.** The Activity was 12.1%.

**Q.** What about the Activity [2] of the same molecule?
**A.** Its Activity is 23%.

**Q.** What about the Activity [3] of the same molecule?
**A.** The Activity was 28%.

**Q.** What about the Activity [4] of the same molecule?
**A.** The Activity was 34.7%.

**Q.** What about the Activity [5] of the same molecule?
**A.** The Activity was 30.5%.

**Q.** What about the Activity [6] of the same molecule?
**A.** The Activity was 53%.

**Q.** What about the Activity [7] of the same molecule?
**A.** The Activity was 4.11%.

**Q.** What about the Activity [8] of the same molecule?
**A.** Its Activity is 12.7%.

**Q.** And the Activity [9]?
**A.** Its Activity is 46%.

**Q.** And the Activity [10]?
**A.** Its Activity is 16.7%.

**Q.** What about the Activity [11] of the same molecule?
**A.** The Activity was 25.2%.

**Q.** And the Activity [12]?
**A.** Its Activity is 3.8%.

**Q.** And the Activity [13]?
**A.** The Activity was 0.17%.

**Q.** And the inhibition [14]?
**A.** The inhibition was “Dose-dependent effect”.

**Q.** What about the inhibition [15] of the same molecule?
**A.** Its inhibition is “Dose-dependent effect”.

**Q.** And the inhibition [16]?
**A.** The inhibition was “Dose-dependent effect”.

**Q.** What about the inhibition [17] of the same molecule?
**A.** The inhibition was “Dose-dependent effect”.

**Q.** And the Activity [18]?
**A.** Its Activity is 10.1%.

**Q.** What about the Activity [19] of the same molecule?
**A.** The Activity was 62.3%.

**Q.** What about the Activity [20] of the same molecule?
**A.** The Activity was 6.27%.
